Experimental data published in the supplement of paper PMC11061612.

What was measured:
Test in all cases: combination Emax (second highest fraction inhibited in the dose matrix, 72 h); higher = more inhibition; extreme values may be limits of the assay
[1] = tested on: CESS (Acute Myeloid Leukemia)
In short: (§1)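 After 24 hours at 37°C and 5% CO2 in 1536-well plates, cells in DMEM/F12 or RPMI plus 10% FBS received two-drug dose matrices for 72 hours. Viability came from CellTiter-Glo 2.0 luminescence and was scaled as inhibition, anchored at 0 by vehicle wells and at 1 by blank wells. Combination Emax is taken as the second-highest inhibition in the matrix, and Bliss excess as the observed combination effect less EA + EB − EA·EB, with EA and EB the single-agent effects.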

[2] = tested on: MDA-MB-436 (Breast Carcinoma)
In short: as §1

[3] = tested on: JHU-022 (Oral Cavity Carcinoma)
In short: as §1

[4] = tested on: HCC1395 (Breast Carcinoma)
In short: as §1

EW-7 (Ewing's Sarcoma) = tested on: EW-7 (Ewing's Sarcoma)
In short: as §1

AU565 (Breast Carcinoma) = tested on: AU565 (Breast Carcinoma)
In short: as §1

[5] = tested on: JIMT-1 (Breast Carcinoma)
In short: as §1

[6] = tested on: JHH-2 (Hepatocellular Carcinoma)
In short: as §1

[7] = tested on: UACC-812 (Breast Carcinoma)
In short: as §1

[8] = tested on: GCT (Other Solid Carcinomas)
In short: as §1

[9] = tested on: ESO26 (Esophageal Adenocarcinoma)
In short: as §1

[10] = tested on: LS-411N (Colorectal Carcinoma)
In short: as §1

[11] = tested on: DMS-53 (Small Cell Lung Carcinoma)
In short: as §1

[12] = tested on: NCI-H2087 (Lung Adenocarcinoma)
In short: as §1

[13] = tested on: KYSE-220 (Esophageal Squamous Cell Carcinoma)
In short: as §1

[14] = tested on: NCI-H2228 (Lung Adenocarcinoma)
In short: as §1

[15] = tested on: GA-10 (Burkitt's Lymphoma)
In short: as §1

[16] = tested on: NCI-H716 (Colorectal Carcinoma)
In short: as §1

KP-N-YN (Neuroblastoma) = tested on: KP-N-YN (Neuroblastoma)
In short: as §1

[17] = tested on: NCI-H1703 (Squamous Cell Lung Carcinoma)
In short: as §1

Question: For `COc1nnc2ccc(N3CCC(c4ccc(OCCN5CCN(C)C(=O)[C@H]5C)cc4)CC3)nn12` [AZD5153] + CCN(CCO)CCCOc1ccc2c(Nc3cc(CC(=O)Nc4cccc(F)c4)[nH]n3)ncnc2c1 [AZD2811] (first compound max 1 µM, 7x7, partner max 1 µM), which “combination Emax” value [1] is on record?
Answer: 0.648

Question: What about the “combination Emax” value [2] of the same molecule?
Answer: 0.287

Question: And the “combination Emax” value [3]?
Answer: 0.452

Question: And the “combination Emax” value [4]?
Answer: 0.398

Question: And the “combination Emax” value (EW-7 (Ewing's Sarcoma))?
Answer: 0.444

Question: And the “combination Emax” value (AU565 (Breast Carcinoma))?
Answer: 0.359

Question: What about the “combination Emax” value [5] of the same molecule?
Answer: 0.382

Question: What about the “combination Emax” value [6] of the same molecule?
Answer: 0.416

Question: And the “combination Emax” value [7]?
Answer: 0.298

Question: And the “combination Emax” value [8]?
Answer: 0.568

Question: What about the “combination Emax” value [9] of the same molecule?
Answer: 0.752

Question: And the “combination Emax” value [10]?
Answer: 0.739

Question: What about the “combination Emax” value [11] of the same molecule?
Answer: 0.593

Question: What about the “combination Emax” value [12] of the same molecule?
Answer: 0.351

Question: What about the “combination Emax” value [13] of the same molecule?
Answer: 0.677

Question: And the “combination Emax” value [14]?
Answer: 0.348

Question: And the “combination Emax” value [15]?
Answer: 0.74

Question: What about the “combination Emax” value [16] of the same molecule?
Answer: 0.529

Question: What about the “combination Emax” value (KP-N-YN (Neuroblastoma)) of the same molecule?
Answer: 0.616

Question: What about the “combination Emax” value [17] of the same molecule?
Answer: 0.721

Question: What does the source list for `COc1nnc2ccc(N3CCC(c4ccc(OCCN5CCN(C)C(=O)[C@H]5C)cc4)CC3)nn12` [AZD5153] + C=CCn1c(=O)c2cnc(Nc3ccc(N4CCN(C)CC4)cc3)nc2n1-c1cccc(C(C)(C)O)n1 [AZD1775] (first compound max 1 µM, partner max 1 µM)?
Answer: combination Emax [1]: 0.941; combination Emax [2]: 0.227; combination Emax [3]: 0.417; combination Emax [4]: 0.524; combination Emax (EW-7 (Ewing's Sarcoma)): 0.872; combination Emax (AU565 (Breast Carcinoma)): 0.742; combination Emax [5]: 0.622; combination Emax [6]: 0.553; combination Emax [7]: 0.376; combination Emax [8]: 0.617; combination Emax [9]: 0.757; combination Emax [10]: 0.889; combination Emax [11]: 0.51; combination Emax [12]: 0.627; combination Emax [13]: 0.804; combination Emax [14]: 0.465; combination Emax [15]: 0.996; combination Emax [16]: 0.524; combination Emax (KP-N-YN (Neuroblastoma)): 0.924; combination Emax [17]: 0.992

Question: With `CC1(C)CCC(CN2CCN(c3ccc(C(=O)NS(=O)(=O)c4ccc(NCC5CCOCC5)c([N+](=O)[O-])c4)c(Oc4cnc5[nH]ccc5c4)c3)CC2)=C(c2ccc(Cl)cc2)C1` [Venetoclax] + CCN(CCO)CCCOc1ccc2c(Nc3cc(CC(=O)Nc4cccc(F)c4)[nH]n3)ncnc2c1 [AZD2811] (first compound max 1 µM, 7x7, partner max 1 µM) as the molecule, how does the “combination Emax” value [1] read?
Answer: 0.615

Question: What about the “combination Emax” value [2] of the same molecule?
Answer: 0.127

Question: What about the “combination Emax” value [3] of the same molecule?
Answer: 0.292

Question: What about the “combination Emax” value [4] of the same molecule?
Answer: 0.639

Question: What about the “combination Emax” value (EW-7 (Ewing's Sarcoma)) of the same molecule?
Answer: 0.887

Question: And the “combination Emax” value (AU565 (Breast Carcinoma))?
Answer: 0.181

Question: And the “combination Emax” value [5]?
Answer: 0.284

Question: And the “combination Emax” value [6]?
Answer: 0.27

Question: What about the “combination Emax” value [7] of the same molecule?
Answer: 0.186

Question: And the “combination Emax” value [8]?
Answer: 0.273

Question: What about the “combination Emax” value [9] of the same molecule?
Answer: 0.126

Question: What about the “combination Emax” value [10] of the same molecule?
Answer: 0.0756

Question: And the “combination Emax” value [11]?
Answer: 0.482

Question: What about the “combination Emax” value [12] of the same molecule?
Answer: 0.176

Question: And the “combination Emax” value [13]?
Answer: 0.299

Question: And the “combination Emax” value [14]?
Answer: 0.253

Question: And the “combination Emax” value [15]?
Answer: 0.598

Question: What about the “combination Emax” value [16] of the same molecule?
Answer: 0.198

Question: And the “combination Emax” value (KP-N-YN (Neuroblastoma))?
Answer: 0.913

Question: What about the “combination Emax” value [17] of the same molecule?
Answer: 0.523

Question: With `COc1cccc(OCCCN)c1-c1cc(Nc2cnc(C#N)cn2)n[nH]1` [Prexasertib] + C[C@@H]1COCCN1C2=NC(=NC(=C2)C3(CC3)[S@](=N)(=O)C)C4=C5C=CNC5=NC=C4 [AZD6738] (first compound max 1 µM, 7x7, partner max 10 µM) as the molecule, how does the “combination Emax” value [1] read?
Answer: 0.978

Question: What about the “combination Emax” value [2] of the same molecule?
Answer: 0.473

Question: What about the “combination Emax” value [3] of the same molecule?
Answer: 0.627

Question: What about the “combination Emax” value [4] of the same molecule?
Answer: 0.86

Question: And the “combination Emax” value (EW-7 (Ewing's Sarcoma))?
Answer: 0.971

Question: And the “combination Emax” value (AU565 (Breast Carcinoma))?
Answer: 0.633

Question: And the “combination Emax” value [5]?
Answer: 0.857

Question: What about the “combination Emax” value [6] of the same molecule?
Answer: 0.854

Question: What about the “combination Emax” value [7] of the same molecule?
Answer: 0.542

Question: And the “combination Emax” value [8]?
Answer: 0.315

Question: And the “combination Emax” value [9]?
Answer: 0.541

Question: What about the “combination Emax” value [10] of the same molecule?
Answer: 0.795

Question: And the “combination Emax” value [11]?
Answer: 0.272

Question: And the “combination Emax” value [12]?
Answer: 0.797

Question: What about the “combination Emax” value [13] of the same molecule?
Answer: 0.939

Question: What about the “combination Emax” value [14] of the same molecule?
Answer: 0.643

Question: What about the “combination Emax” value [15] of the same molecule?
Answer: 1

Question: And the “combination Emax” value [16]?
Answer: 0.616

Question: What about the “combination Emax” value (KP-N-YN (Neuroblastoma)) of the same molecule?
Answer: 1

Question: And the “combination Emax” value [17]?
Answer: 0.97

Question: With `COc1cccc2c1C(=O)c1c(O)c3c(c(O)c1C2=O)C[C@@](O)(C(=O)CO)C[C@@H]3O[C@H]1C[C@H](N)[C@H](O)[C@H](C)O1` [Doxorubicin] + Cc1cc2ncnn2cc1Nc1ncc2c(n1)n(C1CCOCC1)c(=O)n2C [AZD7648] (first compound max 1 µM, 7x7, partner max 10 µM) as the molecule, how does the “combination Emax” value [1] read?
Answer: 0.949

Question: And the “combination Emax” value [2]?
Answer: 0.504

Question: What about the “combination Emax” value [3] of the same molecule?
Answer: 0.858

Question: What about the “combination Emax” value [4] of the same molecule?
Answer: 0.401

Question: What about the “combination Emax” value (EW-7 (Ewing's Sarcoma)) of the same molecule?
Answer: 0.889

Question: And the “combination Emax” value (AU565 (Breast Carcinoma))?
Answer: 0.733

Question: What about the “combination Emax” value [5] of the same molecule?
Answer: 0.697

Question: And the “combination Emax” value [6]?
Answer: 0.627

Question: What about the “combination Emax” value [7] of the same molecule?
Answer: 0.296

Question: And the “combination Emax” value [8]?
Answer: 0.625

Question: What about the “combination Emax” value [9] of the same molecule?
Answer: 0.801

Question: And the “combination Emax” value [10]?
Answer: 0.508

Question: What about the “combination Emax” value [11] of the same molecule?
Answer: 0.455

Question: And the “combination Emax” value [12]?
Answer: 0.655

Question: And the “combination Emax” value [13]?
Answer: 0.979

Question: What about the “combination Emax” value [14] of the same molecule?
Answer: 0.742

Question: And the “combination Emax” value [15]?
Answer: 0.963

Question: And the “combination Emax” value [16]?
Answer: 0.305

Question: What about the “combination Emax” value (KP-N-YN (Neuroblastoma)) of the same molecule?
Answer: 0.698

Question: And the “combination Emax” value [17]?
Answer: 0.932

Question: For `CC1(C)CCC(CN2CCN(c3ccc(C(=O)NS(=O)(=O)c4ccc(NCC5CCOCC5)c([N+](=O)[O-])c4)c(Oc4cnc5[nH]ccc5c4)c3)CC2)=C(c2ccc(Cl)cc2)C1` [Venetoclax] + Cc1cc2ncnn2cc1Nc1ncc2c(n1)n(C1CCOCC1)c(=O)n2C [AZD7648] (first compound max 1 µM, 7x7, partner max 10 µM), which “combination Emax” value [1] is on record?
Answer: 0.327

Question: What about the “combination Emax” value [2] of the same molecule?
Answer: 0.22

Question: What about the “combination Emax” value [3] of the same molecule?
Answer: 0.221

Question: What about the “combination Emax” value [4] of the same molecule?
Answer: 0.654

Question: And the “combination Emax” value (EW-7 (Ewing's Sarcoma))?
Answer: 0.95

Question: And the “combination Emax” value (AU565 (Breast Carcinoma))?
Answer: 0.295

Question: And the “combination Emax” value [5]?
Answer: 0.242

Question: And the “combination Emax” value [6]?
Answer: 0.506

Question: What about the “combination Emax” value [7] of the same molecule?
Answer: 0.22

Question: And the “combination Emax” value [8]?
Answer: 0.283

Question: What about the “combination Emax” value [9] of the same molecule?
Answer: 0.134

Question: And the “combination Emax” value [10]?
Answer: 0.107

Question: What about the “combination Emax” value [11] of the same molecule?
Answer: 0.428

Question: And the “combination Emax” value [12]?
Answer: 0.133

Question: What about the “combination Emax” value [13] of the same molecule?
Answer: 0.145

Question: And the “combination Emax” value [14]?
Answer: 0.4

Question: And the “combination Emax” value [15]?
Answer: 0.698

Question: What about the “combination Emax” value [16] of the same molecule?
Answer: 0.203

Question: And the “combination Emax” value (KP-N-YN (Neuroblastoma))?
Answer: 0.542

Question: What about the “combination Emax” value [17] of the same molecule?
Answer: 0.465
